Read-outs that look alike come from different tables or passages of the source.
Experiments:
GLP-1R = GLP-1R (Homo sapiens, UniProt P43220); assay: GLP-1R activation: cAMP increase in CHO cells stably expressing GLP-1R; format: cell-based
[1] = Microsomal stability, human liver microsomes (predicted hepatic clearance); details: predicted from in vitro microsomal stability data
[2] = cAMP increase, CHO cells stably expressing GLP-1R, 10 point dose response, 30 minutes incubation, read-out: EC50

GLP-1R, sequence (P43220 24-463): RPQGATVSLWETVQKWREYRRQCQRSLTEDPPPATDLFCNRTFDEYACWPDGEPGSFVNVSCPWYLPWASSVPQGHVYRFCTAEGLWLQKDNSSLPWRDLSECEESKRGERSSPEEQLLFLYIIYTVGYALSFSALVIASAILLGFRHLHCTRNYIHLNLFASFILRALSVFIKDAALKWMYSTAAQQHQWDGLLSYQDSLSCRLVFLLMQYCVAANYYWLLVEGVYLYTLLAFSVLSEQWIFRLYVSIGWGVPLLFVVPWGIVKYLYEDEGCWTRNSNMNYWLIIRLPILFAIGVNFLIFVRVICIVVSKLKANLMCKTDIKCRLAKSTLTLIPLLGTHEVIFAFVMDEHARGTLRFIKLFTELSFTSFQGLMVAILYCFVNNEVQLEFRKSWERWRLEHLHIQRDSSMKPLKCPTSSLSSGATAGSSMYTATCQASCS

Compound | EC50 (GLP-1R; [2]) [nM] | Predicted Hepatic Clearance (Pred. Cl.) [1] [mL/min/kg] | EC50 (GLP-1R; read-out: EC50) [nM] | EC50 (GLP-1R; EC50 (nM)) [nM]
N#Cc1ccc(COc2cccc(-c3cc(F)c(Cc4nc5ccc(C(=O)O)cc5n4C[C@@H]4CCO4)cc3F)n2)c(OC(F)F)n1 [Example 858, (S)-2-(4-(6-((6-cyano-2-(difluoromethoxy)pyridin-3-yl)methoxy)pyridin-2-yl)-2,5-difluorobenzyl)-1-(oxetan-2-ylmethyl)-1H-benzo[d]imidazole-6-carboxylic acid] | 2.27 | 8.83 |  | 
COCCn1c(Cc2cc(F)c(-c3cccc(OCc4ccc(C#N)c(F)c4F)n3)cc2F)nc2ccc(C(=O)O)cc21 [Example 859] | 11.6 | 1.83 |  | 
COCCn1c(Cc2cc(F)c(-c3cccc(OCc4ccc(C(F)F)nc4)n3)cc2F)nc2ccc(C(=O)O)cc21 [Example 860] | 22.6 | 1.83 |  | 
COCCn1c(Cc2cc(F)c(-c3cccc(OCc4ccc(C(F)(F)F)nc4)n3)cc2F)nc2ccc(C(=O)O)cc21 [Example 861] | 16.5 | 1.83 |  | 
COCCn1c(Cc2cc(F)c(-c3cccc(OCc4cnc(C(F)(F)F)s4)n3)cc2F)nc2ccc(C(=O)O)cc21 [Example 862] | 16.2 | 4.33 |  | 
COCCn1c(Cc2cc(F)c(-c3cccc(OCc4cc(F)c(C(F)F)cc4F)n3)cc2F)nc2ccc(C(=O)O)cc21 [Example 863] | 5.51 | 4.83 |  | 
COCCn1c(Cc2cc(F)c(-c3cccc(OCc4ccc(-n5cccn5)nc4)n3)cc2F)nc2ccc(C(=O)O)cc21 [Example 865] | 29.8 | 4.33 |  | 
COCCn1c(Cc2cc(F)c(-c3cccc(OCc4ccc(OC)nc4)n3)cc2F)nc2ccc(C(=O)O)cc21 [Example 866, 2-[[2,5-difluoro-4-[6-[(6-methoxy-3-pyridyl)methoxy]-2-pyridyl]phenyl]methyl]-3-(2-methoxyethyl)benzimidazole-5-carboxylic acid] | 16.1 | 8.17 |  | 
COCCn1c(Cc2cc(F)c(-c3cccc(OCc4cc(F)c(C(F)(F)F)cc4F)n3)cc2F)nc2ccc(C(=O)O)cc21 [Example 867] | 2.41 | 1.83 |  | 
COCCn1c(Cc2cc(F)c(-c3cccc(OCc4ccc(C(F)(F)F)cn4)n3)cc2F)nc2ccc(C(=O)O)cc21 [Example 868] | 5.48 | 3.5 |  | 
COCCn1c(Cc2cc(F)c(-c3cccc(OCc4ccc(Cl)cn4)n3)cc2F)nc2ccc(C(=O)O)cc21 [Example 869] | 6.28 | 6.5 |  | 
COCCn1c(Cc2cc(F)c(-c3cccc(OCc4ccc(C#N)cn4)n3)cc2F)nc2ccc(C(=O)O)cc21 [Example 870] | 17.6 | 1.83 |  | 
COCCn1c(Cc2cc(F)c(-c3cccc(OCc4cc(C)c(C(F)(F)F)cc4F)n3)cc2F)nc2ccc(C(=O)O)cc21 [Example 871] | 30.8 | 2 |  | 
COCCn1c(Cc2cc(F)c(-c3cccc(OCc4ccc(C(F)(F)F)c(F)c4F)n3)cc2F)nc2ccc(C(=O)O)cc21 [Example 872, 2-[[4-[6-[[2,3-difluoro-4-(trifluoromethyl)phenyl]methoxy]-2-pyridyl]-2,5-difluoro-phenyl]methyl]-3-(2-methoxyethyl)benzimidazole-5-carboxylic acid] | 5.09 | 1.83 |  | 
COCCn1c(Cc2cc(F)c(-c3cccc(OCc4cccc5c4COC5)n3)cc2F)nc2ccc(C(=O)O)cc21 [Example 873] | 83.8 | 12.2 |  | 
COCCn1c(Cc2cc(F)c(-c3cccc(OCc4ccc(Br)c5c4COC5)n3)cc2F)nc2ccc(C(=O)O)cc21 [Example 874] | 34.7 | 1.83 |  | 
COCCn1c(Cc2cc(F)c(-c3cccc(OCc4ccc(C(C)=O)cc4)n3)cc2F)nc2ccc(C(=O)O)cc21 [Example 875] | 2.32 | 9.33 |  | 
COCCn1c(Cc2cc(F)c(-c3cccc(OCc4cccc(Br)c4)n3)cc2F)nc2ccc(C(=O)O)cc21 [Example 876] | 27.6 | 1.83 |  | 
O=C(O)c1ccc2nc(Cc3cc(F)c(-c4nc(OCc5ccc(C(F)F)cc5F)ncc4F)cc3F)n(C[C@@H]3CCO3)c2c1 [Example 877] | 0.51 | 7.17 |  | 
N#Cc1cc(F)c(COc2ncc(F)c(-c3cc(F)c(Cc4nc5ccc(C(=O)O)cc5n4C[C@@H]4CCO4)cc3F)n2)cc1F [Example 878] | 0.78 | 8.83 |  | 

Compound | EC50 (GLP-1R; [2]) [nM] | Predicted Hepatic Clearance (Pred. Cl.) [1] [mL/min/kg] | EC50 (GLP-1R; read-out: EC50) [nM] | EC50 (GLP-1R; EC50 (nM)) [nM]
N#Cc1ccc(COc2ncc(F)c(-c3cc(F)c(Cc4nc5ccc(C(=O)O)cc5n4C[C@@H]4CCO4)cc3F)n2)c(F)c1 [Example 879, 2-[[4-[2-[(4-cyano-2-fluoro-phenyl)methoxy]-5-fluoro-pyrimidin-4-yl]-2,5-difluoro-phenyl]methyl]-3-[[(2S)-oxetan-2-yl]methyl]benzimidazole-5-carboxylic acid] | 0.51 | 6 |  | 
N#Cc1ccc(COc2ncc(F)c(-c3ccc(Cc4nc5c(F)cc(C(=O)O)cc5n4C[C@@H]4CCO4)c(F)c3)n2)c(F)c1 [Example 880] | 0.26 | 7.5 |  | 
N#Cc1ccc(COc2ncc(F)c(-c3ccc(Cc4nc5c(F)cc(C(=O)O)cc5n4C[C@@H]4CCO4)cc3F)n2)c(F)c1 [Example 881] | 0.29 | 8.83 |  | 
N#Cc1ccc(COc2ncc(F)c(-c3ccc(Cc4nc5c(F)cc(C(=O)O)cc5n4C[C@@H]4CCO4)cc3)n2)c(F)c1 [Example 882] | 0.18 | 6.17 |  | 
N#Cc1ccc(COc2ncc(F)c(-c3cc(F)c(Cc4nc5c(F)cc(C(=O)O)cc5n4CC4(CF)CC4)cc3F)n2)c(F)c1 [Example 883] | 0.3 | 7.5 |  | 
O=C(O)c1cc(F)c2nc(Cc3cc(F)c(-c4nc(OCc5ccc(C(F)(F)F)cc5F)ncc4F)cc3F)n(C[C@@H]3CCO3)c2c1 [Example 884] | 0.19 | 3.17 |  | 
N#Cc1cc(F)c(COc2ncc(F)c(-c3cc(F)c(Cc4nc5c(F)cc(C(=O)O)cc5n4C[C@@H]4CCO4)cc3F)n2)cc1F [Example 885] | 0.22 | 9.17 |  | 
N#Cc1ccc(COc2ncc(F)c(-c3cc(F)c(Cc4nc5c(F)cc(C(=O)O)cc5n4C[C@@H]4CCO4)cc3F)n2)c(F)c1 [Example 886] | 0.18 | 5.83 |  | 
CC(C)(C)C(=O)N1CC[C@@H]1Cn1c(Cc2ccc(-c3cccc(OCc4ccc(C#N)cc4F)n3)cc2F)nc2ccc(C(=O)O)cc21 [Example 887, 2-[[4-[6-[(4-cyano-2-fluoro-phenyl)methoxy]-2-pyridyl]-2-fluoro-phenyl]methyl]-3-[[(2R)-1-(2,2-dimethylpropanoyl)azetidin-2-yl]methyl]benzimidazole-5-carboxylic acid] |  | 8.83 | 8310 | 
CS(=O)(=O)N1CC[C@@H]1Cn1c(Cc2ccc(-c3cccc(OCc4ccc(C#N)cc4F)n3)cc2F)nc2ccc(C(=O)O)cc21 [Example 888, 2-[[4-[6-[(4-cyano-2-fluoro-phenyl)methoxy]-2-pyridyl]-2-fluoro-phenyl]methyl]-3-[[(2R)-1-methylsulfonylazetidin-2-yl]methyl]benzimidazole-5-carboxylic acid] |  | 5.83 | 6.01 | 
N#Cc1ccc(COc2cccc(-c3cc(F)c(Cc4nc5c(F)cc(C(=O)O)cc5n4CCOC(F)F)cc3F)n2)c(F)c1 [Example 892] | 0.78 | 5.5 |  | 
CC(C)(C)OCCn1c(Cc2cc(F)c(-c3cccc(OCc4ccc(C#N)cc4F)n3)cc2F)nc2ccc(C(=O)O)cc21 [Example 893, 1-(2-(tert-butoxy)ethyl)-2-(4-(6-((4-cyano-2-fluorobenzyl)oxy)pyridin-2-yl)-2,5-difluorobenzyl)-1H-benzo[d]imidazole-6-carboxylic acid] |  | 1.83 |  | 35.3
N#Cc1ccc(COc2cccc(-c3cc(F)c(Cc4nc5c(F)cc(C(=O)O)cc5n4CCOC4CC4)cc3F)n2)c(F)c1 [Example 894] | 2.68 | 4.17 |  | 
N#Cc1ccc(COc2cccc(-c3cc(F)c(Cc4nc5ccc(C(=O)O)cc5n4CCNc4ccccc4)cc3F)n2)c(F)c1 [Example 895] |  | 8 | 79.9 | 
N#Cc1ccc(COc2cccc(-c3cc(F)c(Cc4nc5c(F)cc(C(=O)O)cc5n4C[C@@H]4CCO4)cc3F)n2)c(F)c1 [Example 896] | 0.03 | 4.5 |  | 
N#Cc1ccc(COc2nccc(-c3cc(F)c(Cc4nc5ccc(C(=O)O)cc5n4CCOC4CC4)cc3F)n2)c(F)c1 [Example 897] | 4.1 | 2.17 |  | 
N#Cc1ccc(COc2cccc(-c3cc(F)c(Cc4nc5ccc(C(=O)O)cc5n4CC45CC(CO4)C5)cc3F)n2)c(F)c1 [Example 898, 1-((2-oxabicyclo[2.1.1]hexan-1-yl)methyl)-2-(4-(6-((4-cyano-2-fluorobenzyl)oxy)pyridin-2-yl)-2,5-difluorobenzyl)-1H-benzo[d]imidazole-6-carboxylic acid] | 1.5 | 9.67 |  | 
N#Cc1ccc(COc2ccc(F)c(-c3cc(F)c(Cc4nc5ccc(C(=O)O)cc5n4CCOC4CC4)cc3F)n2)c(F)c1 [Example 899] | 2.26 | 4 |  | 
N#Cc1ccc(COc2nc(-c3cc(F)c(Cc4nc5ccc(C(=O)O)cc5n4CCOC4CC4)cc3F)ccc2F)c(F)c1 [Example 900] | 1.26 | 1.83 |  | 
